{"source": "patent US8153410B2", "about": "“Alternate morpheein forms of allosteric proteins as a target for the development of bioactive molecules” (Fox Chase Cancer Center, priority 2003, dated 2012)", "key": {"pea PBGS": {"molecular_target": "T1, pea PBGS (Pisum sativum, UniProt P30124, C394A)", "T1 construct": "made in house", "T1 sequence (P30124 69-398 C394A)": "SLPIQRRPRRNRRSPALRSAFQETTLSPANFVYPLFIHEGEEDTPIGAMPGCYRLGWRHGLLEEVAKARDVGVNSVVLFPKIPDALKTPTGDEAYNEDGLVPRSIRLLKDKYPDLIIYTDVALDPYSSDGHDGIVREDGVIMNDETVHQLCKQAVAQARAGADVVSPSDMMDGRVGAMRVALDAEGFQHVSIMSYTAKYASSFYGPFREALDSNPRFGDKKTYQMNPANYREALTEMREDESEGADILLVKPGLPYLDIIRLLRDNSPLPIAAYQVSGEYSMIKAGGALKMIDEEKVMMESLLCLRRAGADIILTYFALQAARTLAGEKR", "test": "native PAGE gel shift of pea PBGS octamer/hexamer equilibrium", "format": "biochemical", "procedure": "FIG. 32(a) The inhibitor morphlock-1 is illustrated as posed by Glide. The subunits A, B, and E are illustrated as ribbon diagram. Morphlock-1 is shown with carbon atoms and illustrated as ball and stick. FIG. 32(b) The chemical structure of morphlock-1. […] Pea PBGS was incubated with various concentrations of morphlock-1 (in a DMSO solution). Each concentration of morphlock-1 with a fixed amount of DMSO was incubated with protein for 30 minutes at 37° C. prior to resolution on 12.5% polyacrylamide native PhastGels. […] (d) The protein concentration dependence of pea PBGS specific activity is illustrated. PBGS (at varied concentrations) was incubated in the presence of DMSO (●) or 50 μM morphlock-1 in DMSO (∘) for 30 minutes at 37° C. prior to assay. The final concentration of morphlock-1 in the inhibited assay was 5 μM, and the concentration of PBGS in the inhibited and control assays ranged from 0.05-50 μg/mL (0.014-1.4 μM).\nFIG. 34(b) Hexameric pea PBGS (1 mg/mL, prepared by dialysis against low ionic strength) was incubated with DMSO (left) or 500 μM morphlock-1 (right) for 30 minutes at 37° C. ALA was added at the indicated concentrations, and the incubation was continued for 30 minutes prior to resolution on 12.5% polyacrylamide native PhastGels. […] Morphlock-1 concentrations are listed at the top of each lane. Protein samples for left-most gel were at 50 μg/ml (1.4 μM subunit) and 1 mM ALA; protein detection is by silver staining. Samples for the middle gel were also at 50 μg/ml (1.4 μM subunit) and 1 mM ALA; the gel was activity stained. Samples for the right-most gel were at 5 μg/ml (0.14 μM subunit) and 10 mM magnesium; protein detection is by Krypton Infrared staining.\nFIG. 41 illustrates native PAGE screening of compounds. Octameric PBGS (1 mg/mL) was incubated with DMSO or 2 mM of each compound for 30 minutes at 37° C. prior to resolution on 12.5% polyacrylamide native PhastGels. […] Each compound is identified by its box address. The compound B6 is morphlock-1.\nThe interconversion of pea PBGS hexamer and octamer is a dynamic equilibrium that responds to protein concentration, substrate concentration, magnesium concentration, inhibitor concentration, and ionic strength."}, "human PBGS": {"molecular_target": "T2, human PBGS (Homo sapiens, UniProt P13716)", "T2 sequence (P13716 1-330)": "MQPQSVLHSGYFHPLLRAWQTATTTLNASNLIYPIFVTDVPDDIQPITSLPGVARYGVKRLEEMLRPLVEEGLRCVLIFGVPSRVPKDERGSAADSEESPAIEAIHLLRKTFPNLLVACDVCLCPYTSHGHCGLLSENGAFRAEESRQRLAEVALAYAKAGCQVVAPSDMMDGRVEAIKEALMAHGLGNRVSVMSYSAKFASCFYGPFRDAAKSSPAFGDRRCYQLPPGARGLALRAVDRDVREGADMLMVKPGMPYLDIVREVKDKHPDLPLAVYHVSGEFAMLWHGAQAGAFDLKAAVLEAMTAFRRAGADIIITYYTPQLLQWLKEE", "test": "native PAGE gel shift of human PBGS", "format": "biochemical, H. sapiens", "procedure": "(§1) FIG. 33 illustrates the species-specific effects of morphlock-1 on PBGS—FIG. 33(a) Dose-response curves showing morphlock-1 inhibition of pea PBGS at 1 μg/ml (∘) and human PBGS at 0.6 μg/ml (Δ) and 10 μg/ml (□). The proteins were incubated in the presence of 10× inhibitor for 30 minutes at 37° C. prior to assay. The concentrations on the X-axis represent the final concentration of morphlock-1 in the assay. FIG. 33(b). The IC50 for morphlock-1 is a function of pea PBGS concentration. IC50 values were determined as per part (a) using the noted concentrations of pea PBGS. (c) Native PAGE evaluation of the effect of morphlock-1 on the quaternary structure equilibria of PBGS (˜1 mg/ml) from D. melanogaster, P. aeruginosa, V. cholerae, and H. sapiens. Note that the charge/mass ratio is not the same for PBGS from different species.\n(§2) The putative morphlock-1 binding site is phylogenetically variable (see below). As such, morphlock-1 would not be expected to inhibit human PBGS. The effect of morphlock-1 on the activity of human PBGS was also determined at the midpoint of the protein concentration-dependent specific activity. […] To further establish the species-selectivity of morphlock-1, the gel shift assay was also carried out for PBGS from P. aeruginosa, and V. cholerae."}, "V. cholerae PBGS": {"tested_on": "V. cholerae PBGS", "test": "native PAGE gel shift of V. cholerae PBGS", "format": "biochemical", "conditions": "V. cholerae PBGS ~1 mg/ml", "procedure": "as §1, §2"}}, "note": "pIC50: −log10 of the molar value. Like-named read-outs stand apart in the source and are kept apart here.", "data": [{"smiles": "O=C1Nc2ccc(S(=O)(=O)NCC(O)c3ccc([N+](=O)[O-])cc3)c3cccc1c23", "note": "(stereo not drawn) [morphlock-1, 2-oxo-1,2-dihydro-benzo(cd)indole-6-sulfonic acid[2-hydroxy-2-(4-nitro-phenyl)-ethyl]-amide]", "values": [{"measurement": "pIC50", "setting": "pea PBGS; 5 μg/ml pea PBGS and 10 mM magnesium, Krypton IR detection, read-out: apparent IC50, native PAGE", "result": "5.52 to 6.00"}, {"measurement": "pIC50", "setting": "pea PBGS; 50 μg/ml (1.4 μM subunit) pea PBGS and 1 mM ALA, silver stain, read-out: apparent IC50, native PAGE", "result": "~4.00"}, {"measurement": "native PAGE screening: shift of oligomeric equilibrium", "setting": "pea PBGS; PBGS 1 mg/mL, 2 mM compound, 30 minutes at 37° C.", "result": "dramatically shift the oligomeric equilibrium to the hexamer"}, {"measurement": "hexamer converted to octamer by ALA in the presence of morphlock-1", "setting": "pea PBGS; hexameric pea PBGS 1 mg/mL, 2 mM morphlock-1, 5 mM ALA", "result": "~50", "unit": "%"}, {"measurement": "pIC50", "setting": "pea PBGS; non-equilibrium conditions, 1 mg/ml (~28 μM subunits) pea PBGS, read-out: observed IC50 in native PAGE analyses", "result": "~3.30"}, {"measurement": "effect on pea PBGS morpheein equilibrium, native PAGE", "setting": "pea PBGS; pea PBGS 1 mg/mL, various concentrations of morphlock-1, 30 minutes at 37° C.", "result": "draws the pea PBGS morpheein equilibrium entirely to the hexamer in a dose dependent fashion"}, {"measurement": "Coomassie and activity stained native PAGE: binding to hexameric assembly", "setting": "pea PBGS; pea PBGS 1 mg/ml, morphlock-1 at 2 mM", "result": "prevents the substrate mediated conversion of hexamer to octamer"}, {"measurement": "effect on mobility of human PBGS on native PAGE gel", "setting": "human PBGS", "result": "nor does it effect the mobility of human PBGS"}, {"measurement": "perturbation of the quaternary structure equilibrium, gel shift assay", "setting": "V. cholerae PBGS", "result": "did not cause any perturbation of the quaternary structure equilibrium"}]}]}
